Results: EP0323416A2, “Phenylbenzylidene derivatives of 3-aminopropanesulfonic acid having anticonvulsant activity and pharmaceutical compositions containing same for the therapeutical treatment of epilepsy” (Sigma-Tau Industrie Farmaceutiche Riunite S.p.A., priority 1987, dated 1989)
Marks after values point to notes of the source that are not given here.

How the values were obtained:
male albino Swiss mice = experiment: Tolerability test, oral; assay type: in vivo; conditions: suspension in 10% gum arabic, dose of 3 g/kg, mice fasting for 18 hours
Description: The tolerability test was carried out on male albino Swiss mice weighing 22-24 g. The animals, which had been kept fasting for 18 hours, were orally administered a suspension in 10% gum arabic of the compounds ST 505 and ST 512.

[1] = system: cardiazol-induced convulsions; experiment: Cardiazol-induced convulsions test in mice; assay type: in vivo, male albino Swiss (Charles River) mice; conditions: oral; for Cardiazol % Death rate / Cardiazol Strong % Conv.: 60 minutes before convulsant, mice (Table 3)
Description: (§1) The doses of cardiazol, strychinine, bicuculline and picrotoxin (100 mg/10 ml/kg i.p., 0.73 mg/10 ml/kg s.c., 2.38 mg/10 ml/kg s.c. and 4.42 mg/10 ml/kg s.c. respectively) were chosen in such a way as to provoke death of 50% of the control animals.
(§2) The tests were carried out in male albino Swiss (Charles River) mice weighing 22-24 g which had been kept fasting for 18 hours.
(§3) 100/0 gum arabic suspensions of the compounds under examination were orally administered 60 minutes before the convulsant agent administration.
(§4) As reference substance, 3-APS (200-400-800 mg/10 ml/kg i.p.) was used.

[2] = system: strychnine-induced convulsions; experiment: Strychnine-induced convulsions test in mice; assay type: in vivo, male albino Swiss (Charles River) mice; conditions: oral; for Strychnine % Death rate / Strychnine Strong % Conv.: 60 minutes before convulsant, mice (Table 3)
Description: as §1, §2, §3, §4

[3] = system: bicuculline-induced convulsions; experiment: Bicuculline-induced convulsions test in mice; assay type: in vivo, male albino Swiss (Charles River) mice; conditions: oral; for Bicuculline % Death rate / Bicuculline Strong % Conv.: 60 minutes before convulsant, mice (Table 3)
Description: as §1, §2, §3, §4

[4] = system: picrotoxin-induced convulsions; experiment: Picrotoxin-induced convulsions test in mice; assay type: in vivo, male albino Swiss (Charles River) mice; conditions: oral; for Picrotoxin % Death rate / Picrotoxin Strong % Conv.: 60 minutes before convulsant, mice (Table 3)
Description: as §1, §2, §3, §4

[5] = system: cardiazol-induced convulsions; experiment: Cardiazol-induced convulsions test in rats; assay type: in vivo, male albino Wistar rats; conditions: oral, 60 minutes before cardiazole 70 mg/10ml/kg i.p.
Description: The compound was also orally administered to male albino Wistar rats weighing 170-200 g (see table 3), at the dose equimolar to 100 mg 3-APS 60 minutes before cardiazole administration (70 mg/10ml/kg i.p.).

FeCl3-induced epilepsy = FeCl3-induced epilepsy model (EEG); assay type: in vivo, Male albino Wistar rats; conditions: 500 mg/kg oral 45 minutes following FeCl3 injection; Mann-Whitney's U test, P<0.05
Description: Male albino Wistar rats weighing 250-300g were used. The animals, anaesthetized with Nembutal Na (30 mg/kg i.p.), were stereotactically injected in their left ventral hippocampus one microliter of 0.55 M FeCl3 solution (AP=-3.2; L=5.0.; H=5.5 Pelhgrino and Cushman, 1971). Ten minutes following injection, recording electrodes were implanted: in both ventral hippocampi, two millimiters below the FeCl3 injection site (bipolars), bilaterally on the frontoparietal cortex (monopolars). recording of cerebral bioelectric activity, carried out with an EEG OTE-Biomedica PF 14e recorder, began about one hour following FeCl3 injection and lasted more than three hours on end.The epilepsy degree was assessed by calculating for each animal the number and duration in seconds of the seizures at 15-minute intervals during the whole recording span both in the hyppocampus where the injection had been performed and in the contralateral cortex. Moreover, an "index of epileptization" was calculated as the mean product of seizure number times the duration of the seizures in each time interval. […]
The results thus obtained show the antiepileptic activity of the compound assessed by examining the whole phenomenon as it evolves in time via the measure (carried out with the trapezoidal rule) of the area under the curve wherein the average number of seizures and their duration is plotted versus time.

auricular electroshock = experiment: Auricular electroshock (maximal electroshock death); assay type: in vivo, Male albino Swiss mice; conditions: oral in gum arabic 60 minutes before the electroshock, 10 mice
Description: Male albino Swiss mice weighing 22-24 g were used in this test. The electroshock conditions were the shock duration: 3 seconds; frequence: 100; pulse amplitude: 0.6 milliseconds, current intensity: 40 milliamperes. The compounds ST 505 and ST 512 suspended in gum arabic were orally administered 60 minutes before the electroshock.
The tests results which illustrate the number of animal preserved from death provoked by maximal electroshock are shown in the following Table 4.

[6] = system: Sodium penicillin G-induced epilepsy; experiment: Sodium penicillin G-induced epilepsy (EEG); assay type: in vivo, Male albino Wistar rats; conditions: rats
From the text: In this regard, see: Holmes, O. arid Lockton, J.W.: "Locally generated interictal epilectic spikes in the cortex cerebri of the rat". J.Physiol. (Lond.), 308 (1980) 75-76 P. Lokcton, J.W. and Holmes, O: "Site of penicillin-induced epilepsy in the cortex cerebri of the rat'. Brain research, 190 (1980) 301-304. Reichental, E. and Hocherman, S. : "The critical cortical area for development of penicillin-induced epilepsy". Electroenceph. Clin. Neurophysiol., 42 (1977) 248-251).
Male albino Wistar rats weighing 260-280 g were used in this test. Epilepsy was induced in these rats through the application of 5 mg of sodium penicillin G, power (Carlo Erba) on the left cortex cerebri. EEG recording (electroencephalograph OTE-Biomedica PF 14e) was carried out with cortical electrodes. Following a 15 minute recording period (basal), the animals were orally administered 250 mg/10 ml/kg of ST 505 suspended in 10% gum arabic. The controls were administered 10 ml/kg of 10% gum arabic.
The following parameters were taken into account: • a) numper of peaks of the EEG tracing in subsequent 15 minu te intervals, in an overall 5-hour recording period; and • b) number of fits with attendant average duration for each interval.
With regard to parameter a), the area under the curve was calculated wherein the number of peaks at different times and its accumulation function were plotted versus the observation time, thus obtaining five descriptive parameters: one which gives the measure (area) of the totale amount of epilepsy and four (shape indexes) describing the trends of the peaks during the time interval (five hours) under examination. These shape indexes were the percentile values at 50%, 60%, 70% and 800/0 of the accumulation function of the area versus time and represented, therefore, for each rat, a measure of the distribution of the epileptic fits in time.
The fits were studied with the same model as that utilized for the peaks.

[7] = 200 mg/kg eq. 3-APS, versus control
[8] = 100 mg/kg eq. 3-APS, versus control

SMILES: NS(=O)(=O)CCCN=C(c1ccc(Cl)cc1)c1cc(F)ccc1O [ST 505, 3-[[a-(p-chlorophenyl)-5-fluoro-2-hydroxybenzylidene]amino]propanesulfonamide]
- tolerability (male albino Swiss mice): well tolerated
- cardiazole response ([1]; 100 mg/kg eq. 3-APS): did not change
- Cardiazol % Death rate ([1]; 100 mg/kg eq. 3 APS): 90%
- Cardiazol Strong % Conv. ([1]; 100 mg/kg eq. 3 APS): 90%
- latency time of cardiazole-induced first convulsion [1, 7]: increased
- Cardiazol % Death rate ([1]; 200 mg/kg eq. 3 APS): 40%
- Cardiazol Strong % Conv. ([1]; 200 mg/kg eq. 3 APS): 80%
- reduction of strychnine-induced death rate ([2]; 100 mg/kg eq. 3-APS): 20%
- Strychnine % Death rate ([2]; 100 mg/kg eq. 3 APS): 30%
- Strychnine Strong % Conv. ([2]; 100 mg/kg eq. 3 APS): 60%
- strychnine-induced convulsions and death ([2]; 200 mg/kg eq. 3-APS): preserved all the animals
- Strychnine % Death rate ([2]; 200 mg/kg eq. 3 APS): 0%
- Strychnine Strong % Conv. ([2]; 200 mg/kg eq. 3 APS): 0%
- reduction of bicuculline-induced death rate ([3]; 100 mg/kg eq. 3-APS): 20%
- latency time of the bicuculline-induced death [3, 8]: significantly increased
- latency time of the bicuculline-induced first convulsion [3, 8]: significantly increased
- Bicuculline % Death rate ([3]; 100 mg/kg eq. 3 APS): 80%
- Bicuculline Strong % Conv. ([3]; 100 mg/kg eq. 3 APS): 100%
- latency time of bicuculline-induced death [3, 7]: increased
- latency time of bicuculline-induced first convulsion [3, 7]: increased
- Bicuculline % Death rate ([3]; 200 mg/kg eq. 3 APS): 80%
- Bicuculline Strong % Conv. ([3]; 200 mg/kg eq. 3 APS): 100%
- picrotoxin response ([4]; 100 mg/kg eq. 3-APS): did not change
- Picrotoxin % Death rate ([4]; 100 mg/kg eq. 3 APS): 90%
- Picrotoxin Strong % Conv. ([4]; 100 mg/kg eq. 3 APS): 100%
- latency time of picrotoxin-induced first convulsion [4, 7]: increased
- Picrotoxin % Death rate ([4]; 200 mg/kg eq. 3 APS): 90%
- Picrotoxin Strong % Conv. ([4]; 200 mg/kg eq. 3 APS): 100%
- Cardiazol % Death rate ([5]; RAT, 100 mg/kg eq. 3 APS): 60%
- Cardiazol Strong % Conv. ([5]; RAT, 100 mg/kg eq. 3 APS): 60%
- death rate reduction ([5]; Wistar rats, dose equimolar to 100 mg 3-APS): 30%
- first convulsion latency time ([5]; Wistar rats, dose equimolar to 100 mg 3-APS, versus control): significant increase
- area under the curve of average number of seizures and their duration versus time, compared with controls (FeCl3-induced epilepsy): statistically significant difference
- death rate (auricular electroshock; dose 200 (unit not given)): 4/10
- death rate (auricular electroshock; dose 400 (unit not given)): 5/10
- area of the peaks ([6]; 250 mg/10 ml/kg oral, versus controls, Mann Whitney's U test): significantly decreased
- Peak area ([6]; MEAN (S.E.), 250 mg/kg oral, 5-hour EEG recording): 52.9 (5.87)**
- Ist shape index ([6]; MEAN (S.E.), 250 mg/kg oral, percentile 50% of accumulation function): 8.5 (1.0)**
- 2nd shape index ([6]; MEAN (S.E.), 250 mg/kg oral, percentile 60% of accumulation function): 9.8 (1.2)
- 3rd shape index ([6]; MEAN (S.E.), 250 mg/kg oral, percentile 70% of accumulation function): 11.8 (1.4)
- 4th shape index ([6]; MEAN (S.E.), 250 mg/kg oral, percentile 80% of accumulation function): 13.8 (1.4)
